Experimental data taken from patent US11555036B2, “FGFR4 inhibitor, preparation method therefor and pharmaceutical use thereof” (Abbisko Therapeutics Co., Ltd., priority 2016, dated 2023).
pEC50, pIC50: −log10 of the molar value.

What was measured:
FGFR4 = FGFR4 (Homo sapiens, UniProt P22455); experiment: FGFR4 Caliper Assay (in vitro biochemical kinase analysis of FGFR4); details: read-out: Enzymatic activity FGFR4 IC50
Method: I. In Vitro Biochemical Kinase Analysis of FGFR4
FGFR4 Caliper Assay was used in the present invention to determine the inhibitory activities of the compounds against FGFR4. The detailed experimental procedure was as follows.
2. A reaction system is a mixture solution of 50 mM HEPES, pH 7.5, 1 mM DTT, 0.02% Tween 20, 0.02% BSA, 0.6% DMSO, 10 mM beta glycerol phosphate and 10 μM sodium orthovanadate and 16 mM MgCl2.
3. The reaction system was incubated at 30° C. for 40 minutes.
4. The reaction was terminated by adding a stop solution (100 mM HEPES, pH 7.5, 5% DMSO, 0.1% Caliper coating reagent, 10 mM EDTA and 0.015% Brij35).
5. The culture plate with the terminated kinase reaction was transferred to the Caliper LC 3000 workstation to read the data, the phosphorylated and unphosphorylated peptides were separated by using the Caliper microfluid migration shift technique, and the analyte was transferred by allowing a constant buffer flow through the chip, the migration of the substrate peptide was monitored by the labeled fluorescent signal, and the kinase activity was calculated by using the amount of the phosphate-based peptide formed.
6. Finally, IC50 values were determined by non-linear regression analysis of percent inhibition at different compound concentrations.

[1] = tested on: Huh7 hepatocellular carcinoma cells; experiment: FGFR4 cell proliferation experiment, Cell Titer Glo (CTG); type: cell-based; details: Homo sapiens, Huh-7, 72 h, HuH-7 cells, 3 days; for pIC50: concentration leading to absolute half growth inhibition; for pEC50: concentration leading to half maximal growth inhibition
Method: II. FGFR4 Cell Proliferation Experiment
Cell Titer Glo (CTG) experiment was used in the present invention to evaluate the functional effects of the compounds on cell proliferation. […] Compound-mediated inhibition of cell proliferation/survival was assessed by quantification of cellular ATP levels using CTG reagent (Promega, #G7573). The specific experimental procedure was as follows:
2. 10 μL of medium containing a compound concentration of 10 fold of its final test concentration was added;
3. The dose effect was evaluated by a 5-fold serial dilution of the test compound, starting from 10 μM.
4. After cells incubation for 3 days at 37° C. under 5% CO2, the effect of the inhibitor on cell proliferation was quantified after adding 50 μL of CTG and testing with luminescence.

Sequence of FGFR4 (P22455 22-802): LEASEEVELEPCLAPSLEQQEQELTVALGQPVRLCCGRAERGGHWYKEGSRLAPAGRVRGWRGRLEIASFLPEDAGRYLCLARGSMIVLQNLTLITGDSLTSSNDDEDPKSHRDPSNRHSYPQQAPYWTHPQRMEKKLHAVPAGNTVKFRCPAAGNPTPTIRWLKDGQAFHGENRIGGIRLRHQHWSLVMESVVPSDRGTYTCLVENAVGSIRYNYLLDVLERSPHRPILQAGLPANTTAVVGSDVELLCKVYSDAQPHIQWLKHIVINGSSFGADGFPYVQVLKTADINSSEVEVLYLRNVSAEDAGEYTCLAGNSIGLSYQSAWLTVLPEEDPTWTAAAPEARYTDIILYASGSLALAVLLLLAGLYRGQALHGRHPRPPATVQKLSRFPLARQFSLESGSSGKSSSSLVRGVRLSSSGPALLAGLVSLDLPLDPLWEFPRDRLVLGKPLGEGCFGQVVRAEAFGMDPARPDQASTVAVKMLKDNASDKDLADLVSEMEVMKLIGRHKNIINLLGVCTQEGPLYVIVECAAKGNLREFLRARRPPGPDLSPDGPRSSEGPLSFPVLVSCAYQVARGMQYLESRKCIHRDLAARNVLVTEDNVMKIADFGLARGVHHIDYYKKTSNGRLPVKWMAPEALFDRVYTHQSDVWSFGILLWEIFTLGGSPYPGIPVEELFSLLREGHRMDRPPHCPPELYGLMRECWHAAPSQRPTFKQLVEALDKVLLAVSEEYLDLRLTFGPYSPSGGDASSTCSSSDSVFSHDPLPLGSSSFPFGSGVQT

Row | SMILES | pIC50 (FGFR4) | pIC50 [1] | pEC50 [1]
1 | C=CC(=O)N[C@H]1COC[C@H]1Nc1ncc2cc(-c3c(F)c(OC)cc(OC)c3F)nc(N3CCC(C)(O)C3)c2n1 (stereo partly drawn) [Example 772, N-((3R,4S)-4-((6-(2,6-difluoro-3,5-dimethoxyphenyl)-8-(3-hydroxy-3-methylpyrrolidin-1-yl)pyrido[3,4-d]py-rimidin-2-l)amino)tetrahydrofuran-3-yl)acrylamide] | 8.54 | 8.09 | 8.17
2 | C=CC(=O)Nc1cnn(CCOC)c1-c1ncc2cc(-c3c(Cl)c(OC)cc(OC)c3Cl)ncc2n1 [Example 715, N-(5-(6-(2,6-dichloro-3,5-dimethoxyphenyl)pyrido[3,4-d]pyrimidin-2-yl)-1-(2-methoxyethyl)-1H-pyrazol-4-yl)acrylamide] | 7.20 | 5.72 | 5.72
3 | C=CC(=O)N[C@H]1CCOC[C@H]1Nc1ncc2cc(-c3c(F)c(OC)cc(OC)c3F)nc(NCC)c2n1 [Example 787, N-((3S,4S)-3-((6-(2,6-difluoro-3,5-dimethoxyphenyl)-8-(ethylamino)pyri-do[3,4-d]pyrimidin-2-yl)amino)tetra-hydro-2H-pyran-4-yl)acrylamide] | 7.35 | 6.99 | 7.07
4 | [2H]C([2H])([2H])Nc1nc(-c2c(Cl)c(OC([2H])([2H])[2H])cc(OC([2H])([2H])[2H])c2Cl)cc2cnc(N[C@@H]3COC[C@@H]3NC(=O)C=C)nc12 [Example 766, N-((3R,4S)-4-((6-(2,6-dichloro-3,5-bis(methoxy-d3)phenyl)-8-((methyl-d3)amino)pyrido[3,4-d]pyrimidin-2-yl)a-mino)tetrahydrofuran-3-yl)acrylamide] | 8.08 | 7.55 | 7.70
5 | C=CC(=O)N[C@H]1COC[C@H]1Nc1cc2c(NC)nc(-c3c(Cl)c(OC)cc(OC)c3Cl)nc2cn1 [Example 752, N-((3R,4S)-4-((2-(2,6-dichloro-3,5-dimethoxyphenyl)-4-(methylamino)pyrido [3,4-d]pyrimidin-6-yl)amino)tetrahydro-furan-3-yl)acrylamide] | 6.00 | 5.58 | 5.77
6 | C=CC(=O)N[C@H]1COC[C@H]1Nc1ncc2cc(-c3c(F)c(OC)cc(OC)c3F)nc(N3CCC(OC)CC3)c2n1 [Example 694, N-((3R,4S)-4-((6-(2,6-difluoro-3,5-dimethoxyphenyl)-8-(4-methoxypiper-idin-1-yl)pyrido[3,4-d]pyrimidin-2-yl)amino)tetrahydrofuran-3-yl)acryl-amide] | 8.32 | 7.92 | 8.00
7 | C=CC(=O)N[C@H]1COC[C@H]1Nc1ncc2cc(-c3c(Cl)c(OC)cc(OC)c3Cl)nc(N3CC(OC)C3)c2n1 [Example 658, N-((3R,4S)-4-((6-(2,6-dichloro-3,5-dimethoxyphenyl)-8-(3-methoxyazeti-din-1-yl)pyrido[3,4-d]pyrimidin-2-yl)amino)tetrahydrofuran-3-yl)acryl-amide] | 8.32 | 7.82 | 7.94
8 | C=CC(=O)N[C@H]1COC[C@H]1Nc1cc2cnc(-c3c(Cl)c(OC)cc(OC)c3Cl)cc2cn1 [Example 124, N-((3R,4S)-4-((7-(2,6-dichloro-3,5-dime-thoxyphenyl)-2,6-naphthyridin-3-yl)amino)tetrahydrofuran-3-yl)acrylamide] | 7.21 | 6.25 | 6.52
9 | [2H]C([2H])([2H])Nc1nc(-c2c(Cl)c(OC)cc(OC)c2Cl)cc2cnc(N[C@@H]3COC[C@@H]3NC(=O)C=C)nc12 [Example 771, N-((3R,4S)-4-((6-(2,6-dichloro-3,5-dimethoxyphenyl)-8-((methyl-d3)ami-no)pyrido[3,4-d]pyrimidin-2-yl)ami-no)tetrahydrofuran-3-yl)acrylamide] | 8.10 | 7.49 | 7.59
10 | C=CC(=O)N[C@H]1COC[C@H]1Nc1ncc2cc(-c3c(Cl)c(OC)cc(OC)c3Cl)nc(NC)c2n1 [Example 433, N-((3R,4S)-4-((6-(2,6-dichloro-3,5-dimethoxyphenyl)-8-(methylamino)pyrido[3,4-d]pyrimidin-2-yl)amino)tetrahydrofuran-3-yl)acrylamide] | 8.12 | 7.58 | 7.71
11 | C=CC(=O)N[C@H]1COC[C@H]1Nc1ncc2cc(-c3c(Cl)c(OC)cc(OC)c3Cl)nc(Cl)c2n1 [Example 753, N-((3R,4S)-4-((8-chloro-6-(2,6-di-chloro-3,5-dimethoxyphenyl)py-rido[3,4-d]pyrimidin-2-yl)amino)tetrahydro-furan-3-yl)acrylamide] | 7.72 | 6.67 | 6.89
12 | C=CC(=O)N[C@H]1COC[C@H]1Nc1ncc2cc(-c3c(Cl)c(OC)cc(OC)c3Cl)nc(NCC)c2n1 [Example 434] | 8.08 | 7.74 | 8.02
13 | C=CC(=O)N[C@H]1COC[C@H]1Nc1cc2c(NCC3CC3)nc(-c3c(Cl)c(OC)cc(OC)c3Cl)cc2cn1 [Example 126, N-((3R,4S)-4-((5-((cyclopropylmethyl)amino)-7-(2,6-dichloro-3,5-dimethoxy-phenyl)-2,6-naphthyridin-3-yl)amino)tetrahydrofuran-3-yl)acrylamide] | 7.66 | 7.27 | 7.50
14 | C=CC(=O)N[C@H]1COC[C@H]1Nc1ncc2cc(-c3c(Cl)c(OC)cc(OC)c3Cl)nc(N3CCC(C)(O)C3)c2n1 (stereo partly drawn) [Example 760, N-((3R,4S)-4-((6-(2,6-dichloro-3,5-dimethoxyphenyl)-8-(3-hydroxy-3-methylpyrrolidin-1-yl)pyrido[3,4-d]py-rimidin-2-yl)amino)tetarhydrofuran-3-yl)acrylamide] | 8.54 | 8.17 | 8.26
15 | C=CC(=O)N[C@H]1CCOC[C@H]1Nc1ncc2cc(-c3c(F)c(OC)cc(OC)c3F)nc(N3CC4CC(C3)O4)c2n1 [Example 796, N-((3S,4S)-3-((8-(6-oxa-3-aza-bicyclo[3.1.1]heptan-3-yl)-6-(2,6-difluoro-3,5-dimethoxyphenyl)py-rido[3,4-d]pyrimidin-2-yl)a-mino)tetrahydro-2H-pyran-4-yl)acrylamide] | 7.64 | 7.32 | 7.42
16 | C=CC(=O)N[C@H]1COC[C@H]1Nc1ncc2cc(-c3c(F)c(OC)cc(OC)c3F)nc(-c3cnn(C)c3)c2n1 [Example 637, N-((3R,4S)-4-((6-(2,6-difluoro-3,5-dimethoxyphenyl)-8-(1-methyl-1H-py-razol-4-yl)pyrido[3,4-d]pyrimidin-2-yl)amino)tetrahydrofuran-3-yl)acryl-amide] | 8.38 | 7.76 | 8.00
17 | C=CC(=O)N[C@H]1COC[C@H]1Nc1ncc2cc(-c3c(Cl)c(OC)cc(OC)c3Cl)nc(N3CC4CC3CO4)c2n1 (stereo partly drawn) [Example 763, N-((3R,4S)-4-((8-(2-oxa-5-azabicyclo[2.2.1]heptan-5-yl)-6-(2,6-dichloro-3,5-dimethoxyphenyl)py-rido[3,4-d]pyrimidin-2-yl)a-mino)tetrahydrofuran-3-yl)acrylamide] | 8.10 | 7.95 | 8.11
18 | C=CC(=O)N[C@H]1CCOC[C@H]1Nc1ncc2cc(-c3c(F)c(OC)cc(OC)c3F)nc(N3CC(F)(F)C3)c2n1 [Example 791, N-((3S,4S)-3-((6-(2,6-difluoro-3,5-dimethoxyphenyl)-8-(3,3-difluoroazet-idin-1-yl)pyrido[3,4-d]pyrimidin-2-yl)amino)tetrahydro-2H-pyran-4-yl)acrylamide] | 8.43 | 8.08 | 8.19
